We go through 6 compounds from patent US12552775B2, “Compounds and uses thereof” (Foghorn Therapeutics Inc., priority 2020, dated 2026).

Assay [1] has as its target T1, HiBit-BRG1 fusion protein (Homo sapiens, UniProt P51532).
T1 construct: expressed in transfected cells
The assay is described as follows: HiBiT-BRG1 cell-based degradation assay (Nano-Glo HiBiT Lytic Detection, 24 h). The settings on record: stable HeLa cell line expressing HiBit-BRG1 and LgBit, top dose 30 μM, read-out: BRG1 HiBit Degradation Maximum (%). How it is done:
(§1) Procedure: A stable HeLa cell line expressing HiBiT-BRM was generated. On day 0, 5000 cells were seeded in 40 μL of media into each well of 384-well cell culture plates. On day 1, cells were treated with 120 nL DMSO or 120 nL of 3-fold serially DMSO-diluted compounds (10 points in duplicate with 30 μM as final top dose). Subsequently plates were incubated for 24 h in a standard tissue culture incubator and equilibrated at room temperature for 15 minutes. Nano-Glo HiBiT Lytic Detection System (Promega N3050) reagent was freshly prepared and 20 ul was added to each well. Upon addition of this LgBit-containing reagent, the HiBiT and LgBiT proteins associate to form the luminescent NanoBiT luciferase. The plates were shaken for 10 minutes at room temperature and the bioluminescence read using an EnVision plate reader (PerkinElmer).
For measurement of BRG1 degradation, a stable HeLa cell line expressing HiBit-BRG1 and LgBit was generated. The same protocol as above was then followed.
(§2) The degradation % was calculated using the following formula: % degradation=100%−100%×(Lumsample−LumLC)/(LumHC−LumLC). DMSO treated cells are employed as High Control (HC) and 2 μM of a known BRM/BRG1 degrader standard treated cells are employed as Low Control (LC).

Another assay deals with T2, HiBit-BRM fusion protein (Homo sapiens, UniProt P51531).
T2 construct: expressed in transfected cells
T2 sequence (P51531 whole entry, the tested form may be a part): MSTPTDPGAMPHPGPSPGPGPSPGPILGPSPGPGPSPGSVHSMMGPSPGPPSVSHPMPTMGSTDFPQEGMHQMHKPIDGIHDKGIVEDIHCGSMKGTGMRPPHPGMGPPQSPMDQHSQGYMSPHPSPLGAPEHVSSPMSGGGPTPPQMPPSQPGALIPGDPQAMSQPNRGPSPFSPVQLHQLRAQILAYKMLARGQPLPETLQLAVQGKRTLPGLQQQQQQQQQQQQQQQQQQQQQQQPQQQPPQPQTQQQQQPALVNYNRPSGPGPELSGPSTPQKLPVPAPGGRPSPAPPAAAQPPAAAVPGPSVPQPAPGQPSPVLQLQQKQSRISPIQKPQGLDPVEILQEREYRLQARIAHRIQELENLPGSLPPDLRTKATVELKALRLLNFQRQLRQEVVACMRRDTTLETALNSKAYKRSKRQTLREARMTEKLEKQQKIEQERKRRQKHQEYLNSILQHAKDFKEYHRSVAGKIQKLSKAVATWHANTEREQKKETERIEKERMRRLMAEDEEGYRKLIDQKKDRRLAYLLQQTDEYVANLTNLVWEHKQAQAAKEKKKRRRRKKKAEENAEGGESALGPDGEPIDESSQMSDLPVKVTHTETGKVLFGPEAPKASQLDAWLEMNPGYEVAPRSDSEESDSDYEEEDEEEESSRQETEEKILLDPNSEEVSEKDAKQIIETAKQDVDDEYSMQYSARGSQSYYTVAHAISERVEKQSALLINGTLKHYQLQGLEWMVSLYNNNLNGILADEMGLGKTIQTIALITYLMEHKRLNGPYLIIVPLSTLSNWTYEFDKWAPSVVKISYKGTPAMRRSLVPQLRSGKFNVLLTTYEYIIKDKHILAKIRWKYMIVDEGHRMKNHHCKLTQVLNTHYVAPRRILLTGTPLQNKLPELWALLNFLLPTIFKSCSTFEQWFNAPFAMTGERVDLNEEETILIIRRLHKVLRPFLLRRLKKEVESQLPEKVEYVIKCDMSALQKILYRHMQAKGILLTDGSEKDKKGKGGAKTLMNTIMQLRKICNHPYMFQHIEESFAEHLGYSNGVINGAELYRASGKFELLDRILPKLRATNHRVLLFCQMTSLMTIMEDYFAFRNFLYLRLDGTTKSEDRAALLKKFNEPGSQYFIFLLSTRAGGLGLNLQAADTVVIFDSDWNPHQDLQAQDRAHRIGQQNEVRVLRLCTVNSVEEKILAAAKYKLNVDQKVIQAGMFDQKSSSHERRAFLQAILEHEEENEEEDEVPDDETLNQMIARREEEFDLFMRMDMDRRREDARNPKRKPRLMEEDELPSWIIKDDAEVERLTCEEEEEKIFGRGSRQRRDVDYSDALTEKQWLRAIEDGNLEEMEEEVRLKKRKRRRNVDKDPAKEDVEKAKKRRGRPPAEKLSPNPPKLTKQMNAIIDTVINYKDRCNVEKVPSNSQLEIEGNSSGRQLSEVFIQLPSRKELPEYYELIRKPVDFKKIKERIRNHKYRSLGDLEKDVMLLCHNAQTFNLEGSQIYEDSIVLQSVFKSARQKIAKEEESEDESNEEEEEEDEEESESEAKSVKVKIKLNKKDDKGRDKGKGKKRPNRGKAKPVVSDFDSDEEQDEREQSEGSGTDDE
The assay is described as follows: HiBiT-BRM cell-based degradation assay (Nano-Glo HiBiT Lytic Detection, 24 h). The settings on record: stable HeLa cell line expressing HiBiT-BRM, top dose 30 μM. How it is done:
as §1, §2

T1 sequence (P51532 whole entry, the tested form may be a part): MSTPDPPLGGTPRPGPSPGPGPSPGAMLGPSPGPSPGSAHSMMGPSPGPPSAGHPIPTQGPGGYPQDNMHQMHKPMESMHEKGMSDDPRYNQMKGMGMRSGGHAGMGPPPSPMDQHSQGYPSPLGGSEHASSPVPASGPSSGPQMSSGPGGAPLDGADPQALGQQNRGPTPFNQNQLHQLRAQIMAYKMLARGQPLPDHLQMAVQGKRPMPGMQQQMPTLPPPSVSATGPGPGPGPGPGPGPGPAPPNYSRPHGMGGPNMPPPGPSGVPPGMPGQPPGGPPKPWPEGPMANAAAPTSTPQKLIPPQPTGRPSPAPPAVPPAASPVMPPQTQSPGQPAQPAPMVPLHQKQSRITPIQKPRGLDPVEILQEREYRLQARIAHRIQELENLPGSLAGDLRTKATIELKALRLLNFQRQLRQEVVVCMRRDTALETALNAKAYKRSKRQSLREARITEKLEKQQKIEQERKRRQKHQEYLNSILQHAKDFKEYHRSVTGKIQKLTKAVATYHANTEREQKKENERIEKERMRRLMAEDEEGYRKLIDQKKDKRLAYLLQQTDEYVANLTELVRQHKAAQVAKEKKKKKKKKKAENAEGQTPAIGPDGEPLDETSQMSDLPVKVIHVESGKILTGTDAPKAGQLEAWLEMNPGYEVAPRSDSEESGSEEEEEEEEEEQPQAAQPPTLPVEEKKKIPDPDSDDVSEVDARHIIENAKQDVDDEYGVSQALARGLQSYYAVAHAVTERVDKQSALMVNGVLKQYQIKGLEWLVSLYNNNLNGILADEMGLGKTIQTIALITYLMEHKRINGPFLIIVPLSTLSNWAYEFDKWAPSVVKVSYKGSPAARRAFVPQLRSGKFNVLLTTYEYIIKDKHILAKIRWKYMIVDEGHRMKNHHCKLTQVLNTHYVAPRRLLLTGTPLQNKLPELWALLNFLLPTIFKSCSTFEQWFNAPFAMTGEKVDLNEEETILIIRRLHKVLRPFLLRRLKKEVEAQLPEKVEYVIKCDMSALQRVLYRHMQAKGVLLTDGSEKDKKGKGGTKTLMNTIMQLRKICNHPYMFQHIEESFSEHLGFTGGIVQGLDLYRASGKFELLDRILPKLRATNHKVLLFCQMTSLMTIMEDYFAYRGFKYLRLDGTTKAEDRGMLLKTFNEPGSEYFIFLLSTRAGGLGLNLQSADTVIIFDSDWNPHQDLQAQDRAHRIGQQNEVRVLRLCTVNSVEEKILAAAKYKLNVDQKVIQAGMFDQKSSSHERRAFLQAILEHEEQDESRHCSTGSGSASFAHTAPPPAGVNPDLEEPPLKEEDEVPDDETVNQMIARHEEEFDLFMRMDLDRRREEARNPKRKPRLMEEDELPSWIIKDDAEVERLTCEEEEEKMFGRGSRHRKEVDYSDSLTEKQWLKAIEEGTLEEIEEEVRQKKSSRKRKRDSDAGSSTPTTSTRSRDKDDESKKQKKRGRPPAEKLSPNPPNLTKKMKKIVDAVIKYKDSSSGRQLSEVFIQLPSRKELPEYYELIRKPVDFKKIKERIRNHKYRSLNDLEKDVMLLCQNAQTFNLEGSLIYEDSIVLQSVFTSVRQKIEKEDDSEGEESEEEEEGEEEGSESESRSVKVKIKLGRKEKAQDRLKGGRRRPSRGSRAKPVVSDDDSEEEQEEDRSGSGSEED

Take `Nc1nnc(-c2ccccc2O)cc1OCC12CC(C(=O)NCCOCCOCCOCCNC(=O)COc3ccc4c(c3)C(=O)N(C3CCC(=O)NC3=O)C4=O)(C1)C2` (stereo not drawn) [Compound 93, 3-(((3-amino-6-(2-hydroxyphenyl)pyridazin-4-yl)oxy)methyl)-N-(1-((2-(2,6-dioxopiperidin-3-yl)-1,3-dioxoisoindolin-5-yl)oxy)-2-oxo-6,9,12-trioxa-3-azatetradecan-14-yl)bicyclo[1.1.1]pentane-1-carboxamide]: the Dmax in assay [1] is < 50%. In addition, the “BRM HiBit Degradation Maximum (%)” value on HiBit-BRM fusion protein is reported as “C (“C” indicates maximum degradation < 50%)”.

Consider `Cc1ncsc1-c1ccc(CNC(=O)[C@@H]2C[C@@H](O)CN2C(=O)[C@@H](NC(=O)CCCCCCCCCCCCC(=O)NC23CC(CCOc4cc(-c5ccccc5O)nnc4N)(C2)C3)C(C)(C)C)cc1` [Compound 49, N1-(3-(2-((3-amino-6-(2-hydroxyphenyl)pyridazin-4-yl)oxy)ethyl)bicyclo[1.1.1]pentan-1-yl)-N14-((S)-1-((2S,4R)-4-hydroxy-2-((4-(4-methylthiazol-5-yl)benzyl)carbamoyl)pyrrolidin-1-yl)-3,3-dimethyl-1-oxobutan-2-yl)tetradecanediamide], for which the Dmax in assay [1] was < 50%. Moreover, the “BRM HiBit Degradation Maximum (%)” value on HiBit-BRM fusion protein was “C (“C” indicates maximum degradation < 50%)”.

With `Cc1ncsc1-c1ccc(CNC(=O)[C@@H]2C[C@@H](O)CN2C(=O)[C@@H](NC(=O)COCCOCCNC(=O)C23CC(COc4cc(-c5ccccc5O)nnc4N)(C2)C3)C(C)(C)C)cc1` [Compound 68, (2S,4R)-1-((S)-1-(3-(((3-amino-6-(2-hydroxyphenyl)pyridazin-4-yl)oxy)methyl)bicyclo[1.1.1]pentan-1-yl)-12-(tert-butyl)-1,10-dioxo-5,8-dioxa-2,11-diazatridecan-13-oyl)-4-hydroxy-N-(4-(4-methylthiazol-5-yl)benzyl)pyrrolidine-2-carboxamide; formic acid], in assay [1], the Dmax is < 50%. Further, the “BRM HiBit Degradation Maximum (%)” value at HiBit-BRM fusion protein is “C (“C” indicates maximum degradation < 50%)”.

In the case of `Nc1nnc(-c2ccccc2O)cc1OCC12CC(CNC(=O)CCCCCCCCCCNc3ccc4c(c3)C(=O)N(C3CCC(=O)NC3=O)C4=O)(C1)C2` (stereo not drawn) [Compound 10, N-[[3-([[3-amino-6-(2-hydroxyphenyl)pyridazin-4-yl]oxy]methyl)bicyclo[1.1.1]pentan-1-yl]methyl]-11-[[2-(2,6-dioxopiperidin-3-yl)-1,3-dioxoisoindol-5-yl]amino]undecanamide], in assay [1], the Dmax was < 50%. For the same compound, the “BRM HiBit Degradation Maximum (%)” value on HiBit-BRM fusion protein was “C (“C” indicates maximum degradation < 50%)”.

For the compound `Nc1nnc(-c2ccccc2O)cc1OCC12CC(C(=O)NCCOCCOCCNC(=O)COc3ccc4c(c3)C(=O)N(C3CCC(=O)NC3=O)C4=O)(C1)C2` (stereo not drawn) [Compound 91, 3-(((3-amino-6-(2-hydroxyphenyl)pyridazin-4-yl)oxy)methyl)-N-(2-(2-(2-(2-((2-(2,6-dioxopiperidin-3-yl)-1,3-dioxoisoindolin-5-yl)oxy)acetamido)ethoxy)ethoxy)ethyl)bicyclo[1.1.1]pentane-1-carboxamide], the Dmax in assay [1] was < 50%. The “BRM HiBit Degradation Maximum (%)” value on HiBit-BRM fusion protein was “C (“C” indicates maximum degradation < 50%)”.

As for `Cc1nc2cccc(NCCCCCCCCNC(=O)C34CC(COc5cc(-c6ccccc6O)nnc5N)(C3)C4)c2c(=O)n1C1CCC(=O)NC1=O` (stereo not drawn) [Compound 59, 3-(((3-amino-6-(2-hydroxyphenyl)pyridazin-4-yl)oxy)methyl)-N-(8-((3-(2,6-dioxopiperidin-3-yl)-2-methyl-4-oxo-3,4-dihydroquinazolin-5-yl)amino)octyl)bicyclo[1.1.1]pentane-1-carboxamide], in assay [1], the Dmax was < 50%. Moreover, on HiBit-BRM fusion protein, the “BRM HiBit Degradation Maximum (%)” value is “C (“C” indicates maximum degradation < 50%)”.
